Measurements as given in patent US20100152434A1, “Protein Kinase-binding Nucleosides and Associated Methods” (priority 2007, published 2010).
Read-outs that look alike come from different tables or passages of the source.

Assays:
HCT-116 [1] = assay: cells; details: Homo sapiens, HCT-116
HCC-2998 [2] = details: HCC-2993
SNB-19 = assay: cells; details: Homo sapiens, SNB-19
SF-295 = assay: cells; details: Homo sapiens, SF-295
OVCAR-3 = assay: cells; details: Homo sapiens, OVCAR-3
U251 [3] = system: U251
CCRF-CEM = assay: cells; details: Homo sapiens
U251 [4] = assay: cells; details: Homo sapiens, U-251
BT-549 = assay: cells; details: Homo sapiens, BT-549
HCT-15 = assay: cells; details: Homo sapiens, HCT-15
MALME-3M = assay: cells; details: Homo sapiens
HCT-116 [5] = system: HCT-116
EKVX = assay: cells; details: Homo sapiens
SNB-75 [6] = system: SNB-75
NCI/ADR-RES = assay: cells; details: Homo sapiens
SNB-75 [7] = assay: cells; details: Homo sapiens, SNB-75
HOP-62 = assay: cells; details: Homo sapiens, HOP-62
HT29 [8] = system: HT29
HT29 [9] = assay: cells; details: Homo sapiens, HT-29
HCC-2998 [10] = assay: cells; details: Homo sapiens, HCC 2998
[11] = Log10 Concentration −4.0, Molar
[12] = Log10 Concentration −5.0, Molar
[13] = Log10 Concentration −6.0, Molar
[14] = Log10 Concentration −7.0, Molar
[15] = Log10 Concentration −8.0, Molar

## CNC(=O)NC[C@H]1O[C@@H](n2cnc3c(NC(=O)Nc4ccccc4)ncnc32)C(O[Si](C)(C)C(C)(C)C)[C@H]1O[Si](C)(C)C(C)(C)C (some centres unmarked) [Compound 25, 2′,3′-Bis-O-(tert-butyldimethylsilyl)-5-deoxy-5′-[(N-methylcarbamoyl)amino]-N^6-(N-phenylcarbamoyl)adenosine]
SK-MEL-5
  TGI: 4.75E−6 Molar
SK-MEL-5; [11]
  Percent Growth: −99%
SK-MEL-5; [12]
  Percent Growth: −42%
SK-MEL-5; [13]
  Percent Growth: 82%
SK-MEL-5; [14]
  Percent Growth: 96%
SK-MEL-5; [15]
  Percent Growth: 102%
HCT-116 [1]
  GI50: 2.11 µM
  IC50: 8.8 µM
HCC-2998 [2]
  TGI: 3.75E−6 Molar
HCC-2998 [2]; Log10 Concentration −4.0 Molar
  Percent Growth: −91%
HCC-2998 [2]; Log10 Concentration −5.0 Molar
  Percent Growth: −79%
HCC-2998 [2]; Log10 Concentration −6.0 Molar
  Percent Growth: 106%
HCC-2998 [2]; Log10 Concentration −7.0 Molar
  Percent Growth: 93%
HCC-2998 [2]; Log10 Concentration −8.0 Molar
  Percent Growth: 100%
SNB-19
  GI50: 4.57 µM
  IC50: > 100 µM
SF-295
  GI50: 3.84 µM
  IC50: > 100 µM
OVCAR-3
  GI50: 2.6 µM
  IC50: 98.2 µM
U251 [3]
  TGI: 1.08E−5 Molar
U251 [3]; [11]
  Percent Growth: −46%
U251 [3]; [12]
  Percent Growth: 2%
U251 [3]; [13]
  Percent Growth: 93%
U251 [3]; [14]
  Percent Growth: 102%
U251 [3]; [15]
  Percent Growth: 102%
CCRF-CEM
  GI50: 3.59 µM
  IC50: > 100 µM
U251 [4]
  GI50: 2.96 µM
  IC50: > 100 µM
BT-549
  GI50: 2.92 µM
  IC50: > 100 µM
HCT-15
  GI50: 3.62 µM
  IC50: > 100 µM
MALME-3M
  GI50: 2.98 µM
  IC50: > 100 µM
HCT-116 [5]
  TGI: 4.31E−6 Molar
HCT-116 [5]; [11]
  Percent Growth: −100%
HCT-116 [5]; [12]
  Percent Growth: −59%
HCT-116 [5]; [13]
  Percent Growth: 102%
HCT-116 [5]; [14]
  Percent Growth: 105%
HCT-116 [5]; [15]
  Percent Growth: 107%
EKVX
  GI50: 3.7 µM
  IC50: > 100 µM
UO-31
  TGI: 9.56E−6 Molar
UO-31; [11]
  Percent Growth: −21%
UO-31; [12]
  Percent Growth: −2%
UO-31; [13]
  Percent Growth: 84%
UO-31; [14]
  Percent Growth: 97%
UO-31; [15]
  Percent Growth: 87%
SNB-75 [6]
  TGI: 3.41E−5 Molar
SNB-75 [6]; [11]
  Percent Growth: −12%
SNB-75 [6]; [12]
  Percent Growth: 14%
SNB-75 [6]; [13]
  Percent Growth: 73%
SNB-75 [6]; [14]
  Percent Growth: 95%
SNB-75 [6]; [15]
  Percent Growth: 94%
NCI/ADR-RES
  GI50: 3.72 µM
  IC50: > 100 µM
UACC-62
  TGI: 2.36E−5 Molar
UACC-62; [11]
  Percent Growth: −39%
UACC-62; [12]
  Percent Growth: 23%
UACC-62; [13]
  Percent Growth: 90%
UACC-62; [14]
  Percent Growth: 100%
UACC-62; [15]
  Percent Growth: 102%
T-47D
  TGI: 1.03E−5 Molar
T-47D; [11]
  Percent Growth: −32%
T-47D; [13]
  Percent Growth: 92%
T-47D; [14]
  Percent Growth: 105%
T-47D; [15]
  Percent Growth: 101%
SNB-75 [7]
  GI50: 2.43 µM
  IC50: > 100 µM
HOP-62
  GI50: 49.8 µM
  IC50: 49 µM
HT29 [8]
  TGI: 3.73E−6 Molar
HT29 [8]; [11]
  Percent Growth: −100%
HT29 [8]; [12]
  Percent Growth: −80%
HT29 [8]; [13]
  Percent Growth: 107%
HT29 [8]; [14]
  Percent Growth: 104%
HT29 [8]; [15]
  Percent Growth: 102%
A498
  TGI: 4.06E−6 Molar
A498; [11]
  Percent Growth: −75%
A498; [12]
  Percent Growth: −39%
A498; [13]
  Percent Growth: 90%
A498; [14]
  Percent Growth: 97%
A498; [15]
  Percent Growth: 92%
M14
  TGI: 1.85E−5 Molar
M14; [11]
  Percent Growth: −52%
M14; [12]
  Percent Growth: 19%
M14; [13]
  Percent Growth: 105%
M14; [14]
  Percent Growth: 107%
M14; [15]
  Percent Growth: 101%
HT29 [9]
  GI50: 2.02 µM
  IC50: 8.91 µM
HCC-2998 [10]
  GI50: 2.02 µM
  IC50: 6.99 µM
COLO 205
  TGI: 3.35E−6 Molar
COLO 205; [11]
  Percent Growth: −94%
COLO 205; [12]
  Percent Growth: −95%
COLO 205; [13]
  Percent Growth: 105%
COLO 205; [14]
  Percent Growth: 111%
COLO 205; [15]
  Percent Growth: 109%
